Experimental data taken from patent publication US9028831B2, “Markers for selecting personalized therapies for the treatment of cancer” (Fundació Institut de Recerca Hospital Universitari Vall …, priority 2009, dated 2015).
Entries after “also recorded” stand apart in the source; their conditions may differ. Like-named read-outs stand apart in the source and are kept apart here.

Columns and labels:
[1] = test system: metastatic colorectal cancer; assay: Response, time to progression and survival of patients receiving irinotecan-based chemotherapy, by tumor aprataxin level; assay type: in vivo, human; conditions: for time to progression (TTP) median: irinotecan-based treatment
Protocol: A total of 135 patients with metastatic colorectal cancer receiving irinotecan-based chemotherapy in Hospital Universitario Vall d'Hebron were included in the study. The response to the chemotherapeutic treatment was evaluated by means of computerized axial tomography (CAT) and a response was considered complete when the complete disappearance of metastatic lesions was observed. […] A lesion size reduction observed by CAT greater than 30% or an increase above 20% were considered as partial response or progressive disease, respectively. The study was conducted according to the research protocols approved by the Clinical Research Ethics Committee.
After the histological examination of tumor sample sections stained with hematoxylin and eosin and fixed with formalin embedded in paraffin, areas containing a large proportion of tumor cells were selected from the 135 patients. Cores of 1.2 mm of tumor samples from each patient were arranged in duplicate in a new paraffin block using an apparatus for preparing tissue matrices from Beecher Instruments (Beecher Instruments, Silver Spring, Md.).
4 μm unstained sections of the tissue microarrays were mounted on slides coated with 3-aminopropyl-triethoxy-silane (Sigma, St. Louis, Mo., USA). The sections were deparaffinized in xylene and rehydrated by means of a gradual series of alcohol and distilled water. The antigen was recovered with preheated 10 mM pH=6 citrate buffer for 20 minutes at 95° C. For the immunohistochemical analysis, the commercial Novolink polymer detection system was used according to the manufacturer's instructions (Novocastra Laboratories; Newcastle, UK). A rabbit anti-aprataxin polyclonal antibody made against the C-terminus end of human aprataxin was used at a dilution 1:100 (4° C. overnight; Aviva Systems Biology Corp.; San Diego, Calif.). The staining was viewed using a solution of 3,3′-diaminobenzidine (DAB) and the sections were counter stained in Mayer's hematoxylin, washed in water, dehydrated through a series of ethanol solution, clarified in xylene and mounted. The aprataxin levels were evaluated without knowing the clinical data. A semi-quantitative scale from 0 to 3 was used to measure the staining intensity. The absence of aprataxin staining was graded as 0 and the low, moderate and high aprataxin levels were graded as 1, 2, and 3, respectively (see FIG. 2A-D). The mean grading of samples in duplicate was used in subsequent analysis.
Survival curves were plotted using Kaplan and Meier method and the survival differences were evaluated using log-rank test. Cox's proportional hazard model was used to evaluate the simultaneous contribution of the following covariables in the overall survival: sex, age, histological grade, and tumor aprataxin levels. Fisher's exact test, Chi-squared test and Mann-Whitney test were used to evaluate the differences between clinicopathological parameters in patients with high and low aprataxin levels (see Table 1). It was considered that the p values of less than 0.05 indicated statistic significant.

[2] = test system: parental cells DT40; assay: Camptothecin-induced apoptosis (subdiploid DNA content, propidium iodide FACS) in parental DT40 cells; assay type: cell-based, Chicken; conditions: 15-25 nM, 72 hours
Protocol: (§1) Chicken parental B cell line DT40, a sub-line where ATPX was interrupted by means of homologous recombination and a derivative line where APTX was re-introduced in the knock-out cells were used (Abel I, et al., Nature 2006; 443: 713-6). Camptothecin-induced apoptosis was evaluated as has been previously described (Arango D, et al., Cancer Res 2001; 61: 4910-5; Arango D, et al., Br J Cancer 2003; 89: 1757-65). Briefly, 2.5×10^5 cells were seeded by triplicate in 6-well Falcon plates (Becton Dickinson) and were left to adhere for 24 hours before sucking out the medium and changing it with fresh medium containing 0, 15 or 25 nM camptothecin (Calbiochem, San Diego, Calif.). After 72 hours of treatment, both the adhered cells and those that floated were collected, they were washed two times with 2 ml of PBS, and resuspended in PBS containing 50 μg/ml propidium iodide, 0.1% sodium citrate, and 0.1% Triton X-100. The cells were stained overnight at 4° C. and the DNA content was analyzed using a cell separator (FACSCalibur; Becton Dickinson). The cell debris were discarded, and the proportion of cells with subdiploid DNA content typical of apoptotic cells was quantified using WinList 2.0 (Verity Software House, Inc.). All the experiments were carried out in triplicate, and the mean from three independent experiments is shown.

[3] = test system: APTX knock-out cells DT40; assay: Camptothecin-induced apoptosis in DT40 sub-line with APTX inactivated by homologous recombination; assay type: cell-based, Chicken; conditions: 15-25 nM, 72 hours, p<0.004
Protocol: as §1

[4] = test system: DT40 knock-out cells with APTX re-introduced; assay: Camptothecin-induced apoptosis in DT40 knock-out cells with APTX re-introduced; assay type: cell-based, Chicken; conditions: APTX knock-out DT40 cells with APTX reintroduced, 15-25 nM, 72 hours
Protocol: as §1

Structure (SMILES)	Overall survival median [1]	Overall survival median ([1]; Low aprataxin patients)	Overall survival median ([1]; Total patients)	hazard ratio, overall survival ([1]; high vs absent/low aprataxin, 95% CI 1.21-3.63, log-rank p=0.008)	hazard ratio, time to progression ([1]; moderate/high vs absent/low aprataxin, 95% CI 1.04-2.29, log-rank p=0.03)	time to progression (TTP) median ([1]; patients with absence or low aprataxin levels)	time to progression (TTP) median ([1]; patients with moderate or high tumor aprataxin levels)	apoptosis induction [2]	apoptosis induction / sensitization to CPT [3]	CPT resistant phenotype after reintroduction of APTX [4]
CCc1c2c(nc3ccc(OC(=O)N4CCC(N5CCCCC5)CC4)cc13)-c1cc3c(c(=O)n1C2)COC(=O)[C@]3(O)CC [irinotecan]	19 months	36.7 months	26.3 months	2.1	1.5	9.2 months	5.5 months			
CC[C@@]1(O)C(=O)OCc2c1cc1n(c2=O)Cc2cc3ccccc3nc2-1 [CPT, camptothecin]								modest apoptosis induction	significantly sensitized; also recorded: significantly increased apoptosis induction	completely reestablished the CPT resistant phenotype; also recorded: fully reestablished the resistant phenotype
